pIC50: −log10 of the molar value.

Data on four compounds can be found in PubChem BioAssay AID2060904 (Molecular Pharmacology Branch, DTP, NCI, 2025).
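Note: spheroids exposed to compound for seven days before viability readout.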

In the first assay the test system is 349418-098-R-PDC complex spheroid viability. Kind of assay: Anticancer human tumor 349418-098-R-PDC patient-derived lung adenocarcinoma cell line growth inhibition [RAS]. To be noted: curve of first compound; second compound 0.0316 µM. In short, it runs like this: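 Agents were tested in combination matrices in half-log decrements from a top concentration at or near clinical Cmax (10 microM if undetermined). Targets were multi-cell spheroids of tumour lines plus HUVEC and MSC stromal cells.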
By pIC50 is commonly meant the IC50 on a negative log10 scale, so that one unit is a factor of ten. As to `CC1(O)CCCC1n1c(=O)c(C(F)F)cc2cnc(NC3CCN(S(C)(=O)=O)CC3)nc21` (configuration not stated) + C#Cc1c(F)ccc2cc(O)cc(-c3ncc4c(N5CC6CCC(C5)N6)nc(OCC56CCCN5CC(F)C6)nc4c3F)c12, the pIC50 is 7.18.
On to `CCC(CC)c1cc(NC2CCC(N)C2)n2nccc2n1` (configuration not stated) + C#Cc1c(F)ccc2cc(O)cc(-c3ncc4c(N5CC6CCC(C5)N6)nc(OCC56CCCN5CC(F)C6)nc4c3F)c12, for which the pIC50 was 6.13.
Consider `CCN1CCN(Cc2ccc(Nc3ncc(F)c(-c4cc(F)c5nc(C)n(C(C)C)c5c4)n3)nc2)CC1` + C#Cc1c(F)ccc2cc(O)cc(-c3ncc4c(N5CC6CCC(C5)N6)nc(OCC56CCCN5CC(F)C6)nc4c3F)c12, for which the pIC50 is 8.10.
Turning to `C[C@@H](NC(=O)c1ncnc(N)c1Cl)c1ncc(C(=O)Nc2cc(C(F)(F)F)c(Cl)cn2)s1` + C#Cc1c(F)ccc2cc(O)cc(-c3ncc4c(N5CC6CCC(C5)N6)nc(OCC56CCCN5CC(F)C6)nc4c3F)c12, the pIC50 was 5.61.

The same assay, now with this note: curve of first compound; second compound 0.1 µM.
`CC1(O)CCCC1n1c(=O)c(C(F)F)cc2cnc(NC3CCN(S(C)(=O)=O)CC3)nc21` (configuration not stated) + C#Cc1c(F)ccc2cc(O)cc(-c3ncc4c(N5CC6CCC(C5)N6)nc(OCC56CCCN5CC(F)C6)nc4c3F)c12: the pIC50 is 7.09.
Consider `CCC(CC)c1cc(NC2CCC(N)C2)n2nccc2n1` (configuration not stated) + C#Cc1c(F)ccc2cc(O)cc(-c3ncc4c(N5CC6CCC(C5)N6)nc(OCC56CCCN5CC(F)C6)nc4c3F)c12, for which the pIC50 is 6.09.
For the compound `CCN1CCN(Cc2ccc(Nc3ncc(F)c(-c4cc(F)c5nc(C)n(C(C)C)c5c4)n3)nc2)CC1` + C#Cc1c(F)ccc2cc(O)cc(-c3ncc4c(N5CC6CCC(C5)N6)nc(OCC56CCCN5CC(F)C6)nc4c3F)c12, the pIC50 was 7.52.
Take `C[C@@H](NC(=O)c1ncnc(N)c1Cl)c1ncc(C(=O)Nc2cc(C(F)(F)F)c(Cl)cn2)s1` + C#Cc1c(F)ccc2cc(O)cc(-c3ncc4c(N5CC6CCC(C5)N6)nc(OCC56CCCN5CC(F)C6)nc4c3F)c12: the pIC50 is 5.57.

Still in this assay, the particulars now being: curve of first compound; second compound 0.316 µM.
For `CC1(O)CCCC1n1c(=O)c(C(F)F)cc2cnc(NC3CCN(S(C)(=O)=O)CC3)nc21` (configuration not stated) + C#Cc1c(F)ccc2cc(O)cc(-c3ncc4c(N5CC6CCC(C5)N6)nc(OCC56CCCN5CC(F)C6)nc4c3F)c12, the negative-log IC50 (pIC50) is 7.06.
On to `CCC(CC)c1cc(NC2CCC(N)C2)n2nccc2n1` (configuration not stated) + C#Cc1c(F)ccc2cc(O)cc(-c3ncc4c(N5CC6CCC(C5)N6)nc(OCC56CCCN5CC(F)C6)nc4c3F)c12, for which the pIC50 is 6.04.
As to `CCN1CCN(Cc2ccc(Nc3ncc(F)c(-c4cc(F)c5nc(C)n(C(C)C)c5c4)n3)nc2)CC1` + C#Cc1c(F)ccc2cc(O)cc(-c3ncc4c(N5CC6CCC(C5)N6)nc(OCC56CCCN5CC(F)C6)nc4c3F)c12, the pIC50 was 7.74.
Same read-out and setting: the figure for `C[C@@H](NC(=O)c1ncnc(N)c1Cl)c1ncc(C(=O)Nc2cc(C(F)(F)F)c(Cl)cn2)s1` + C#Cc1c(F)ccc2cc(O)cc(-c3ncc4c(N5CC6CCC(C5)N6)nc(OCC56CCCN5CC(F)C6)nc4c3F)c12 is 5.66.

The same assay, now with this note: curve of first compound; second compound 1 µM.
`CC1(O)CCCC1n1c(=O)c(C(F)F)cc2cnc(NC3CCN(S(C)(=O)=O)CC3)nc21` (configuration not stated) + C#Cc1c(F)ccc2cc(O)cc(-c3ncc4c(N5CC6CCC(C5)N6)nc(OCC56CCCN5CC(F)C6)nc4c3F)c12: the negative-log IC50 (pIC50) was 7.28.
The same measure, in the same setting: the figure for `CCC(CC)c1cc(NC2CCC(N)C2)n2nccc2n1` (configuration not stated) + C#Cc1c(F)ccc2cc(O)cc(-c3ncc4c(N5CC6CCC(C5)N6)nc(OCC56CCCN5CC(F)C6)nc4c3F)c12 is 6.06; for `CCN1CCN(Cc2ccc(Nc3ncc(F)c(-c4cc(F)c5nc(C)n(C(C)C)c5c4)n3)nc2)CC1` + C#Cc1c(F)ccc2cc(O)cc(-c3ncc4c(N5CC6CCC(C5)N6)nc(OCC56CCCN5CC(F)C6)nc4c3F)c12 it is 7.91; for `C[C@@H](NC(=O)c1ncnc(N)c1Cl)c1ncc(C(=O)Nc2cc(C(F)(F)F)c(Cl)cn2)s1` + C#Cc1c(F)ccc2cc(O)cc(-c3ncc4c(N5CC6CCC(C5)N6)nc(OCC56CCCN5CC(F)C6)nc4c3F)c12 it is 5.57.

Still in this assay, the particulars now being: curve of first compound; second compound 3.16 µM.
As to `CC1(O)CCCC1n1c(=O)c(C(F)F)cc2cnc(NC3CCN(S(C)(=O)=O)CC3)nc21` (configuration not stated) + C#Cc1c(F)ccc2cc(O)cc(-c3ncc4c(N5CC6CCC(C5)N6)nc(OCC56CCCN5CC(F)C6)nc4c3F)c12, the pIC50 is 7.10.
Regarding `CCC(CC)c1cc(NC2CCC(N)C2)n2nccc2n1` (configuration not stated) + C#Cc1c(F)ccc2cc(O)cc(-c3ncc4c(N5CC6CCC(C5)N6)nc(OCC56CCCN5CC(F)C6)nc4c3F)c12, the negative logarithm of the IC50 (pIC50) is 6.15.
Regarding `CCN1CCN(Cc2ccc(Nc3ncc(F)c(-c4cc(F)c5nc(C)n(C(C)C)c5c4)n3)nc2)CC1` + C#Cc1c(F)ccc2cc(O)cc(-c3ncc4c(N5CC6CCC(C5)N6)nc(OCC56CCCN5CC(F)C6)nc4c3F)c12, the pIC50 was 7.99.
Still for that read-out and setting: the figure for `C[C@@H](NC(=O)c1ncnc(N)c1Cl)c1ncc(C(=O)Nc2cc(C(F)(F)F)c(Cl)cn2)s1` + C#Cc1c(F)ccc2cc(O)cc(-c3ncc4c(N5CC6CCC(C5)N6)nc(OCC56CCCN5CC(F)C6)nc4c3F)c12 is 5.53.

The same assay, now with this note: curve of first compound; second compound 10 µM.
In the case of `CC1(O)CCCC1n1c(=O)c(C(F)F)cc2cnc(NC3CCN(S(C)(=O)=O)CC3)nc21` (configuration not stated) + C#Cc1c(F)ccc2cc(O)cc(-c3ncc4c(N5CC6CCC(C5)N6)nc(OCC56CCCN5CC(F)C6)nc4c3F)c12, the negative-log IC50 (pIC50) is above 7.50.
As for `CCC(CC)c1cc(NC2CCC(N)C2)n2nccc2n1` (configuration not stated) + C#Cc1c(F)ccc2cc(O)cc(-c3ncc4c(N5CC6CCC(C5)N6)nc(OCC56CCCN5CC(F)C6)nc4c3F)c12, the pIC50 was above 7.50.
As to `CCN1CCN(Cc2ccc(Nc3ncc(F)c(-c4cc(F)c5nc(C)n(C(C)C)c5c4)n3)nc2)CC1` + C#Cc1c(F)ccc2cc(O)cc(-c3ncc4c(N5CC6CCC(C5)N6)nc(OCC56CCCN5CC(F)C6)nc4c3F)c12, the pIC50 was above 8.50.
On the same count and under the same terms, the figure for `C[C@@H](NC(=O)c1ncnc(N)c1Cl)c1ncc(C(=O)Nc2cc(C(F)(F)F)c(Cl)cn2)s1` + C#Cc1c(F)ccc2cc(O)cc(-c3ncc4c(N5CC6CCC(C5)N6)nc(OCC56CCCN5CC(F)C6)nc4c3F)c12 is 6.40.

Still in this assay, the particulars now being: second compound 0.0316 µM; first compound 0.00316 µM; stronger effect = lower value.
For orientation: viability, T/C means the result in the treated group divided by that in the control group, in per cent. For `CCN1CCN(Cc2ccc(Nc3ncc(F)c(-c4cc(F)c5nc(C)n(C(C)C)c5c4)n3)nc2)CC1` + C#Cc1c(F)ccc2cc(O)cc(-c3ncc4c(N5CC6CCC(C5)N6)nc(OCC56CCCN5CC(F)C6)nc4c3F)c12, the viability, T/C was 66.8%.

The same assay, now with this note: second compound 0.0316 µM; first compound 0.01 µM; stronger effect = lower value.
Consider `CCN1CCN(Cc2ccc(Nc3ncc(F)c(-c4cc(F)c5nc(C)n(C(C)C)c5c4)n3)nc2)CC1` + C#Cc1c(F)ccc2cc(O)cc(-c3ncc4c(N5CC6CCC(C5)N6)nc(OCC56CCCN5CC(F)C6)nc4c3F)c12, for which the viability, T/C is 38.2%.

The assay is the same for the next values; noted with them: second compound 0.0316 µM; first compound 0.0316 µM; stronger effect = lower value.
`CC1(O)CCCC1n1c(=O)c(C(F)F)cc2cnc(NC3CCN(S(C)(=O)=O)CC3)nc21` (configuration not stated) + C#Cc1c(F)ccc2cc(O)cc(-c3ncc4c(N5CC6CCC(C5)N6)nc(OCC56CCCN5CC(F)C6)nc4c3F)c12: the viability, T/C was 62.5%.
Same read-out and setting: the figure for `CCC(CC)c1cc(NC2CCC(N)C2)n2nccc2n1` (configuration not stated) + C#Cc1c(F)ccc2cc(O)cc(-c3ncc4c(N5CC6CCC(C5)N6)nc(OCC56CCCN5CC(F)C6)nc4c3F)c12 is 91.3%; for `CCN1CCN(Cc2ccc(Nc3ncc(F)c(-c4cc(F)c5nc(C)n(C(C)C)c5c4)n3)nc2)CC1` + C#Cc1c(F)ccc2cc(O)cc(-c3ncc4c(N5CC6CCC(C5)N6)nc(OCC56CCCN5CC(F)C6)nc4c3F)c12 it is 41.9%; for `C[C@@H](NC(=O)c1ncnc(N)c1Cl)c1ncc(C(=O)Nc2cc(C(F)(F)F)c(Cl)cn2)s1` + C#Cc1c(F)ccc2cc(O)cc(-c3ncc4c(N5CC6CCC(C5)N6)nc(OCC56CCCN5CC(F)C6)nc4c3F)c12 it is 83.8%.

Staying with this assay, now noted: second compound 0.0316 µM; first compound 0.1 µM; stronger effect = lower value.
On to `CC1(O)CCCC1n1c(=O)c(C(F)F)cc2cnc(NC3CCN(S(C)(=O)=O)CC3)nc21` (configuration not stated) + C#Cc1c(F)ccc2cc(O)cc(-c3ncc4c(N5CC6CCC(C5)N6)nc(OCC56CCCN5CC(F)C6)nc4c3F)c12, for which the viability, T/C was 43.8%.
Take `CCC(CC)c1cc(NC2CCC(N)C2)n2nccc2n1` (configuration not stated) + C#Cc1c(F)ccc2cc(O)cc(-c3ncc4c(N5CC6CCC(C5)N6)nc(OCC56CCCN5CC(F)C6)nc4c3F)c12: the viability, T/C is 106%.
Take `CCN1CCN(Cc2ccc(Nc3ncc(F)c(-c4cc(F)c5nc(C)n(C(C)C)c5c4)n3)nc2)CC1` + C#Cc1c(F)ccc2cc(O)cc(-c3ncc4c(N5CC6CCC(C5)N6)nc(OCC56CCCN5CC(F)C6)nc4c3F)c12: the viability, T/C is 25.9%.
Still for that read-out and setting: the figure for `C[C@@H](NC(=O)c1ncnc(N)c1Cl)c1ncc(C(=O)Nc2cc(C(F)(F)F)c(Cl)cn2)s1` + C#Cc1c(F)ccc2cc(O)cc(-c3ncc4c(N5CC6CCC(C5)N6)nc(OCC56CCCN5CC(F)C6)nc4c3F)c12 is 116%.

Staying with this assay, now noted: second compound 0.0316 µM; first compound 0.316 µM; stronger effect = lower value.
As for `CC1(O)CCCC1n1c(=O)c(C(F)F)cc2cnc(NC3CCN(S(C)(=O)=O)CC3)nc21` (configuration not stated) + C#Cc1c(F)ccc2cc(O)cc(-c3ncc4c(N5CC6CCC(C5)N6)nc(OCC56CCCN5CC(F)C6)nc4c3F)c12, the viability, T/C is 23%.
Same read-out and setting: the figure for `CCC(CC)c1cc(NC2CCC(N)C2)n2nccc2n1` (configuration not stated) + C#Cc1c(F)ccc2cc(O)cc(-c3ncc4c(N5CC6CCC(C5)N6)nc(OCC56CCCN5CC(F)C6)nc4c3F)c12 is 76.1%; for `CCN1CCN(Cc2ccc(Nc3ncc(F)c(-c4cc(F)c5nc(C)n(C(C)C)c5c4)n3)nc2)CC1` + C#Cc1c(F)ccc2cc(O)cc(-c3ncc4c(N5CC6CCC(C5)N6)nc(OCC56CCCN5CC(F)C6)nc4c3F)c12 it is 18%.
For the compound `C[C@@H](NC(=O)c1ncnc(N)c1Cl)c1ncc(C(=O)Nc2cc(C(F)(F)F)c(Cl)cn2)s1` + C#Cc1c(F)ccc2cc(O)cc(-c3ncc4c(N5CC6CCC(C5)N6)nc(OCC56CCCN5CC(F)C6)nc4c3F)c12, the viability, T/C was 89%.

Staying with this assay, now noted: second compound 0.0316 µM; first compound 1 µM; stronger effect = lower value.
On to `CC1(O)CCCC1n1c(=O)c(C(F)F)cc2cnc(NC3CCN(S(C)(=O)=O)CC3)nc21` (configuration not stated) + C#Cc1c(F)ccc2cc(O)cc(-c3ncc4c(N5CC6CCC(C5)N6)nc(OCC56CCCN5CC(F)C6)nc4c3F)c12, for which the viability, T/C is 27.6%.
Same read-out and setting: the figure for `CCC(CC)c1cc(NC2CCC(N)C2)n2nccc2n1` (configuration not stated) + C#Cc1c(F)ccc2cc(O)cc(-c3ncc4c(N5CC6CCC(C5)N6)nc(OCC56CCCN5CC(F)C6)nc4c3F)c12 is 41.9%; for `CCN1CCN(Cc2ccc(Nc3ncc(F)c(-c4cc(F)c5nc(C)n(C(C)C)c5c4)n3)nc2)CC1` + C#Cc1c(F)ccc2cc(O)cc(-c3ncc4c(N5CC6CCC(C5)N6)nc(OCC56CCCN5CC(F)C6)nc4c3F)c12 it is 16.3%; for `C[C@@H](NC(=O)c1ncnc(N)c1Cl)c1ncc(C(=O)Nc2cc(C(F)(F)F)c(Cl)cn2)s1` + C#Cc1c(F)ccc2cc(O)cc(-c3ncc4c(N5CC6CCC(C5)N6)nc(OCC56CCCN5CC(F)C6)nc4c3F)c12 it is 67.8%.
